# Test results reported in the NIST ThermoML archive (doi:10.1021/acs.jced.5b00200).
# Where “and” joins values, the source holds several entries; their conditions need not be identical. Equal values may be shown once. Numbers after ± are expanded uncertainties.
# Assay: wn = mass fraction of the nth substance listed
# Details: 297.15 K, 100 kPa, Liquid, Alternating current cell with electrodes
electrical conductivity (w1 = 0.097) [S/m],electrical conductivity (w1 = 0.047),Structure (SMILES)
0.0001,,CCC(C)O (stereo not given) [butan-2-ol] + O
,0.0479 ± 0.004 S/m,CC(=O)[O-].[NH4+] [ammonium acetate] + O
0.0001,,CC(C)O [propan-2-ol] + O

# The next lines start with the molecule.
Structure (SMILES),electrical conductivity (w1 = 0.097) [S/m],electrical conductivity (w1 = 0.047)
CC(=O)[O-].[K+] [potassium ethanoate] + O,,0.0484 S/m and 0.0479 S/m
CC(=O)[O-].[Na+] [sodium ethanoate] + O,,0.0438 S/m and 0.0441 S/m
